Literature values, collected in US10550186B2, “Cancer therapy targeting intercellular adhesion molecule 4 (ICAM4)” (Beth Israel Deaconess Medical Center, Inc., priority 2014, dated 2020).

Details: more cytotoxic than the comparators

## COc1cc2cc(c1Cl)N(C)C(=O)C[C@H](OC(=O)[C@H](C)N(C)C(C)=O)[C@]1(C)O[C@H]1[C@H](C)[C@@H]1C[C@@](O)(NC(=O)O1)[C@H](OC)/C=C/C=C(\C)C2 [Maytansine]
  cytotoxicity relative to doxorubicin, methotrexate and vinca alkyloid: 100- to 1000 fold
